Test results: patent publication US20030032003A1, “IN VIVO SELECTION” (priority 2000, published 2003)

Tests used:
[1] = tested on: T cells from Lesch Nyhan syndrome patients and Hprt deficient brothers; details: cited from earlier work
[2] = tested on: Hprt +/+ bone marrow of recipient mice; test: Bone marrow replacement, Southern blot analysis of Y (donor) DNA; type: in vivo, mouse
Excerpt: The replacement of Hprt positive bone marrow with Hprt deficient bone marrow was examined by Southern blot analysis. Since recipients animals were females and donor bone marrow was of male origin, we have determined the fraction of cells containing chromosome (Y) in hematopoetic organs (bone marrow, spleen, thymus) and peripheral tissue (tail) in recipient animals. The Y chromosome was detected in 6TG treated and control animals.
Next Applicants tested whether “in vivo selection” without whole body irradiation can lead to complete bone marrow replacement. The wild type recipient mice were pretreated with 6TG (10 mg/kg twice in 48 hrs interval) or with sterile PBS and the Hprt deficient bone marrow was transplanted. The animals in the experimental group were 6TG pretreated followed with the 6TG in vivo selection protocol (described herein above). The control animals (6TG or PBS pretreated) were treated with sterile PBS buffer instead of 6TG. The degree of bone marrow replacement was evaluated by Southern blot analysis in hematopoetic tissues (bone marrow, spleen, thymus) and blood at the end of the 7th week post transplantation.

[3] = tested on: Hprt −/− (Hprt deficient) mice; test: Acute toxicity of 6TG, approximate lethal dose; details: for body weight, percentage of the body weight before the experiment / survival: Hprt −/−, 14 days
Hprt −/− mice = test: Biochemical analysis of mouse serum after 6TG; type: in vivo; details: serum 14 days after treatment
Procedure: Serum biochemistry parameters analyzed included blood urea nitrogen (BUN), aspartate amino transferase (AST), alanine amino transferase (ALT), creatine kinase (CK), and alkaline phosphatase (AP). The analyses were performed at Tufts University Veterinary Medical Diagnosis Laboratory with the chemical analyser Hitachi 747. Blood was collected from the posterior vena cava of Hprt deficient mice that were either treated with water, 25, 500, or 720 mg/kg 6TG i.p. and wildtype mice administered 25 mg/kg 6TG.
[…] Serum samples taken 14 days after treatment were evaluated for the levels of blood urea nitrogen (BUN), aspartate amino transferase (AST), alanine amino transferase (ALT), creatine kinase (CK) and alkaline phosphatase (AP). Elevated BUN is associated with dehydratation and/or renal insufficiency. Elevated activities of ALT and AST are characteristic for liver damage particularly necrosis, cirrhosis and/or hepatitis and also muscle trauma or myocardial infarction or myositis. Elevated AP is associated mostly with increased bone marrow metabolism and also with hapatocellular damage during hepatitis. CK is predominantly located in muscles and therefore its increased activities are consequence of muscular trauma, myocardial infarction or myopathic disorders.

For `Nc1nc(S)c2[nH]cnc2n1` [6TG, 2-amino-6-merkaptopurine], the “6TG resistance higher than cells from normal individuals” value ([1]; T cells from Lesch Nyhan syndrome patients) is given as 300 fold, the “6TG resistance greater than normal individuals” value ([1]; T cells of Hprt deficient brothers without signs of the disease) is given as 10 fold and the bone marrow replacement ([2]; 6TG in vivo selection protocol, whether or not irradiation was used, end of 7th week post transplantation) is given as 100%. For the same compound, the “engraftment of Hprt deficient bone marrow cells (containing Y chomosome)” value ([2]; irradiated recipients, 6TG selection in comparison to control animals) was “significantly increased engraftment”, the approximate lethal dose ([3]; Hprt −/− animals, single i.p.) was 1148 mg/kg and the “increase of approximate lethal dose over the wildtype strain” value ([3]; Hprt −/− vs wildtype) was 23 fold. The “body weight, percentage of the body weight before the experiment” value (from here on “body weight, percentage”) ([3]; 25 mg/kg single i.p.) was 101%, the survival ([3]; 25 mg/kg single i.p.) was “surv (surv, animals survived the 14 days period)” and the “body weight, percentage” value ([3]; 50 mg/kg single i.p.) was 102%. The survival ([3]; 50 mg/kg single i.p.) was “surv (surv, animals survived the 14 days period)”, the “body weight, percentage” value ([3]; 100 mg/kg single i.p.) was 103% and the survival ([3]; 100 mg/kg single i.p.) was “surv (surv, animals survived the 14 days period)”. The “body weight, percentage” value ([3]; 150 mg/kg single i.p.) was 101%, the survival ([3]; 150 mg/kg single i.p.) was “surv (surv, animals survived the 14 days period)” and the “body weight, percentage” value ([3]; 225 mg/kg single i.p.) was 100%. The survival ([3]; 225 mg/kg single i.p.) was “surv (surv, animals survived the 14 days period)”, the “body weight, percentage” value ([3]; 338 mg/kg single i.p.) was 101% and the survival ([3]; 338 mg/kg single i.p.) was “surv (surv, animals survived the 14 days period)”. The “body weight, percentage” value ([3]; 508 mg/kg single i.p.) was 99%, the survival ([3]; 508 mg/kg single i.p.) was “surv (surv, animals survived the 14 days period)” and the “body weight, percentage” value ([3]; 720 mg/kg single i.p.) was 101%. The survival ([3]; 720 mg/kg single i.p.) was “surv (surv, animals survived the 14 days period)”, the “body weight, percentage” value ([3]; 1148 mg/kg single i.p.) was 69% and the survival ([3]; 1148 mg/kg single i.p.) was 8.5 days. For the same compound, the “body weight, percentage” value ([3]; 1714 mg/kg single i.p.) was 93%, the survival ([3]; 1714 mg/kg single i.p.) was 4 days and the “body weight, percentage” value ([3]; 2571 mg/kg single i.p.) was 95%. For the same compound, the survival ([3]; 2571 mg/kg single i.p.) was 4 days, the ALT (Hprt −/− mice; 25 mg/kg single i.p.) was 28.7 ± 14.9 u/l and the AP (Hprt −/− mice; 25 mg/kg single i.p.) was 78.7 ± 22.5 u/l. The AST (Hprt −/− mice; 25 mg/kg single i.p.) was 53.3 ± 17.5 u/l, the BUN (Hprt −/− mice; 25 mg/kg single i.p.) was 18.5 ± 0.6 mg/dL and the CK (Hprt −/− mice; 25 mg/kg single i.p.) was 67.7 ± 41.2 u/l. The ALT (Hprt −/− mice; 500 mg/kg single i.p.) was 14.3 ± 3.5 u/l, the AP (Hprt −/− mice; 500 mg/kg single i.p.) was 71.0 ± 38.0 u/l and the AST (Hprt −/− mice; 500 mg/kg single i.p.) was 50. ± 11.8 u/l. For the same compound, the BUN (Hprt −/− mice; 500 mg/kg single i.p.) was 18.0 ± 1.0 mg/dL, the CK (Hprt −/− mice; 500 mg/kg single i.p.) was 52.0 ± 23.3 u/l and the ALT (Hprt −/− mice; 720 mg/kg single i.p.) was 13.7 ± 1.5 u/l. The AP (Hprt −/− mice; 720 mg/kg single i.p.) was 78.7 ± 20.5 u/l, the AST (Hprt −/− mice; 720 mg/kg single i.p.) was 43.3 ± 14.0 u/l and the BUN (Hprt −/− mice; 720 mg/kg single i.p.) was 20.0 ± 2.7 mg/dL. It also gave a CK (Hprt −/− mice; 720 mg/kg single i.p.) of 37.3 ± 11.6 u/l.
